Test results published in the supplement of paper PMC13380429.

Key:
Conditions in all cases: 72 h
[1] = system: Caco-2; assay: relative viability EC50 (midpoint between 100% and the lowest measured viability); higher = less toxic
[2] = system: Vero E6; assay: as above
[3] = system: U2OS; assay: as above
[4] = system: HepG2; assay: as above
[5] = system: Calu-3; assay: as above
[6] = system: Caco-2; assay: drug sensitivity score (DSS) for viability; higher = more toxic; extreme values may be limits of the assay
[7] = system: Vero E6; assay: as above
[8] = system: U2OS; assay: as above
[9] = system: HepG2; assay: as above
[10] = system: Calu-3; assay: as above
[11] = system: Caco-2; assay: cell viability relative to DMSO; higher = less toxic
[12] = system: Vero E6; assay: as above
[13] = system: U2OS; assay: as above
[14] = system: HepG2; assay: as above
[15] = system: Calu-3; assay: as above

CC(=O)OCC(=O)NCCCOc1cccc(CN2CCCCC2)c1 [roxatidine-acetate]
relative viability EC50 [1]: > 10 µM
relative viability EC50 [2]: > 10 µM
relative viability EC50 [3]: > 10 µM
relative viability EC50 [4]: > 10 µM
relative viability EC50 [5]: > 10 µM
drug sensitivity score [6]: 0
drug sensitivity score [7]: 0
drug sensitivity score [8]: 0
drug sensitivity score [9]: 0
drug sensitivity score [10]: 0
cell viability ([11]; 1 nM): 103%
cell viability ([11]; 10 nM): 91.5%
cell viability ([11]; 100 nM): 97.1%
cell viability ([11]; 1000 nM): 101%
cell viability ([11]; 10000 nM): 93.9%
cell viability ([12]; 1 nM): 106%
cell viability ([12]; 10 nM): 106%
cell viability ([12]; 100 nM): 99.1%
cell viability ([12]; 1000 nM): 103%
cell viability ([12]; 10000 nM): 99.2%
cell viability ([13]; 1 nM): 96%
cell viability ([13]; 10 nM): 95%
cell viability ([13]; 100 nM): 98.7%
cell viability ([13]; 1000 nM): 93.9%
cell viability ([13]; 10000 nM): 97.6%
cell viability ([14]; 1 nM): 94.3%
cell viability ([14]; 10 nM): 107%
cell viability ([14]; 100 nM): 95.5%
cell viability ([14]; 1000 nM): 95.4%
cell viability ([14]; 10000 nM): 91.1%
cell viability ([15]; 1 nM): 107%
cell viability ([15]; 10 nM): 111%
cell viability ([15]; 100 nM): 103%
cell viability ([15]; 1000 nM): 99.5%
cell viability ([15]; 10000 nM): 99.8%

CN/C(=N\c1ccc(C2=NNC(=O)CC2C)cc1)NC#N (stereo not given) [siguazodan]
relative viability EC50 [1]: > 10 µM
relative viability EC50 [2]: > 10 µM
relative viability EC50 [3]: > 10 µM
relative viability EC50 [4]: > 10 µM
relative viability EC50 [5]: > 10 µM
drug sensitivity score [6]: 0
drug sensitivity score [7]: 0
drug sensitivity score [8]: 0
drug sensitivity score [9]: 0
drug sensitivity score [10]: 0
cell viability ([11]; 1 nM): 105%
cell viability ([11]; 10 nM): 97.2%
cell viability ([11]; 100 nM): 97.2%
cell viability ([11]; 1000 nM): 96.6%
cell viability ([11]; 10000 nM): 90.6%
cell viability ([12]; 1 nM): 103%
cell viability ([12]; 10 nM): 104%
cell viability ([12]; 100 nM): 104%
cell viability ([12]; 1000 nM): 98.9%
cell viability ([12]; 10000 nM): 105%
cell viability ([13]; 1 nM): 103%
cell viability ([13]; 10 nM): 103%
cell viability ([13]; 100 nM): 97.6%
cell viability ([13]; 1000 nM): 105%
cell viability ([13]; 10000 nM): 99.7%
cell viability ([14]; 1 nM): 114%
cell viability ([14]; 10 nM): 91.1%
cell viability ([14]; 100 nM): 104%
cell viability ([14]; 1000 nM): 107%
cell viability ([14]; 10000 nM): 105%
cell viability ([15]; 1 nM): 102%
cell viability ([15]; 10 nM): 100%
cell viability ([15]; 100 nM): 98.9%
cell viability ([15]; 1000 nM): 102%
cell viability ([15]; 10000 nM): 98.6%

O=NO [sodium-nitrite]
relative viability EC50 [1]: > 10 µM
relative viability EC50 [2]: > 10 µM
relative viability EC50 [3]: > 10 µM
relative viability EC50 [4]: > 10 µM
relative viability EC50 [5]: > 10 µM
drug sensitivity score [6]: 0
drug sensitivity score [7]: 0
drug sensitivity score [8]: 0
drug sensitivity score [9]: 0
drug sensitivity score [10]: 0
cell viability ([11]; 1 nM): 87.7%
cell viability ([11]; 10 nM): 93.5%
cell viability ([11]; 100 nM): 94%
cell viability ([11]; 1000 nM): 92.3%
cell viability ([11]; 10000 nM): 97.3%
cell viability ([12]; 1 nM): 106%
cell viability ([12]; 10 nM): 113%
cell viability ([12]; 100 nM): 95.2%
cell viability ([12]; 1000 nM): 103%
cell viability ([12]; 10000 nM): 99.2%
cell viability ([13]; 1 nM): 95.4%
cell viability ([13]; 10 nM): 97.1%
cell viability ([13]; 100 nM): 100%
cell viability ([13]; 1000 nM): 94.2%
cell viability ([13]; 10000 nM): 97.4%
cell viability ([14]; 1 nM): 105%
cell viability ([14]; 10 nM): 102%
cell viability ([14]; 100 nM): 97.4%
cell viability ([14]; 1000 nM): 98%
cell viability ([14]; 10000 nM): 101%
cell viability ([15]; 1 nM): 94.3%
cell viability ([15]; 10 nM): 100%
cell viability ([15]; 100 nM): 102%
cell viability ([15]; 1000 nM): 94.8%
cell viability ([15]; 10000 nM): 91.8%
